Experiments:
Format in all cases: functional
CCRF-CEM = assay: Anticancer activity against human CCRF-CEM cells assessed cell growth at 10 uM after 48 hrs by sulforhodamine B assay relative to control
M14 = assay: Anticancer activity against human M14 cells after 48 hrs by sulforhodamine B assay; details: Homo sapiens, M14, 48 h
SW-620 [1] = assay: Anticancer activity against human SW620 cells after 48 hrs by sulforhodamine B assay; details: Homo sapiens, SW-620, 48 h
UACC-257 = assay: Anticancer activity against human UACC257 cells after 48 hrs by sulforhodamine B assay; details: Homo sapiens, UACC-257, 48 h
Malme-3M = assay: Anticancer activity against human MALME-3M cells assessed cell growth at 10 uM after 48 hrs by sulforhodamine B assay relative to control
DU-145 [2] = assay: Anticancer activity against human DU145 cells assessed cell growth at 10 uM after 48 hrs by sulforhodamine B assay relative to control
PC-3 = assay: Anticancer activity against human PC3 cells after 48 hrs by sulforhodamine B assay; details: Homo sapiens, PC-3, 48 h; for CC50: read-out: LC50 (the source's name)
MOLT-4 = assay: Anticancer activity against human MOLT4 cells assessed cell growth at 10 uM after 48 hrs by sulforhodamine B assay relative to control
HCC 2998 = assay: Anticancer activity against human HCC2998 cells after 48 hrs by sulforhodamine B assay; details: Homo sapiens, HCC 2998, 48 h; for CC50: read-out: LC50 (the source's name)
UO-31 = assay: Anticancer activity against human UO31 cells after 48 hrs by sulforhodamine B assay; details: Homo sapiens, UO-31, 48 h
SF-295 = assay: Anticancer activity against human SF295 cells after 48 hrs by sulforhodamine B assay; details: Homo sapiens, SF-295, 48 h; for CC50: read-out: LC50 (the source's name)
ACHN = assay: Anticancer activity against human ACHN cells assessed cell growth at 10 uM after 48 hrs by sulforhodamine B assay relative to control
TK-10 = assay: Anticancer activity against human TK10 cells after 48 hrs by sulforhodamine B assay; details: Homo sapiens, TK-10, 48 h
MDA-MB-468 = assay: Anticancer activity against human MDA-MB-468 cells after 48 hrs by sulforhodamine B assay; details: Homo sapiens, MDA-MB-468, 48 h
RXF 393 [3] = assay: Anticancer activity against human RXF393 cells assessed cell growth at 10 uM after 48 hrs by sulforhodamine B assay relative to control
RXF 393 [4] = assay: Anticancer activity against human RXF393 cells after 48 hrs by sulforhodamine B assay; details: Homo sapiens, RXF 393, 48 h
NCI-H460 = assay: Anticancer activity against human NCI-H460 cells after 48 hrs by sulforhodamine B assay; details: Homo sapiens, NCI-H460, 48 h
NCI-H226 [5] = assay: Anticancer activity against human NCI-H226 cells after 48 hrs by sulforhodamine B assay; details: Homo sapiens, NCI-H226, 48 h
MCF7 [6] = assay: Anticancer activity against human MCF7 cells after 48 hrs by sulforhodamine B assay; details: Homo sapiens, MCF7, 48 h
OVCAR-3 = assay: Anticancer activity against human OVCAR-3 cells after 48 hrs by sulforhodamine B assay; details: Homo sapiens, OVCAR-3, 48 h
HOP-62 = assay: Anticancer activity against human HOP62 cells after 48 hrs by sulforhodamine B assay; details: Homo sapiens, HOP-62, 48 h; for CC50: read-out: LC50 (the source's name)
SNB-75 = assay: Anticancer activity against human SNB75 cells after 48 hrs by sulforhodamine B assay; details: Homo sapiens, SNB-75, 48 h; for CC50: read-out: LC50 (the source's name)
A498 = assay: Anticancer activity against human A498 cells after 48 hrs by sulforhodamine B assay; details: Homo sapiens, A498, 48 h; for CC50: read-out: LC50 (the source's name)
DU-145 [7] = assay: Anticancer activity against human DU145 cells after 48 hrs by sulforhodamine B assay; details: Homo sapiens, DU-145, 48 h; for CC50: read-out: LC50 (the source's name)
SF-268 = assay: Anticancer activity against human SF268 cells assessed cell growth at 10 uM after 48 hrs by sulforhodamine B assay relative to control
HOP-92 = assay: Anticancer activity against human HOP92 cells after 48 hrs by sulforhodamine B assay; details: Homo sapiens, HOP-92, 48 h; for CC50: read-out: LC50 (the source's name)
COLO 205 = assay: Anticancer activity against human COLO205 cells after 48 hrs by sulforhodamine B assay; details: Homo sapiens, COLO 205, 48 h; for CC50: read-out: LC50 (the source's name)
SN12C = assay: Anticancer activity against human SN12C cells after 48 hrs by sulforhodamine B assay; details: Homo sapiens, SN12C, 48 h
NCI-H226 [8] = assay: Anticancer activity against human NCI-H226 cells assessed cell growth at 10 uM after 48 hrs by sulforhodamine B assay relative to control
MCF7 [9] = assay: Anticancer activity against human MCF7 cells assessed cell growth at 10 uM after 48 hrs by sulforhodamine B assay relative to control
HL-60(TB) = assay: Anticancer activity against human HL-60(TB) cells assessed cell growth at 10 uM after 48 hrs by sulforhodamine B assay relative to control
SR [10] = assay: Anticancer activity against human SR cells assessed cell growth at 10 uM after 48 hrs by sulforhodamine B assay relative to control
HCT-116 = assay: Anticancer activity against human HCT116 cells after 48 hrs by sulforhodamine B assay; details: Homo sapiens, HCT-116, 48 h; for CC50: read-out: LC50 (the source's name)
NCI-H23 = assay: Anticancer activity against human NCI-H23 cells after 48 hrs by sulforhodamine B assay; details: Homo sapiens, NCI-H23, 48 h; for CC50: read-out: LC50 (the source's name)
SK-OV-3 = assay: Anticancer activity against human SKOV3 cells after 48 hrs by sulforhodamine B assay; details: Homo sapiens, SK-OV-3, 48 h; for CC50: read-out: LC50 (the source's name)
OVCAR-8 = assay: Anticancer activity against human OVCAR8 cells after 48 hrs by sulforhodamine B assay; details: Homo sapiens, OVCAR-8, 48 h
KM12 = assay: Anticancer activity against human KM12 cells after 48 hrs by sulforhodamine B assay; details: Homo sapiens, KM12, 48 h; for CC50: read-out: LC50 (the source's name)
MDA-MB-435 = assay: Anticancer activity against human MDA-MB-435 cells assessed cell growth at 10 uM after 48 hrs by sulforhodamine B assay relative to control
U-251 = assay: Anticancer activity against human U251 cells after 48 hrs by sulforhodamine B assay; details: Homo sapiens, U-251, 48 h; for CC50: read-out: LC50 (the source's name)
SW-620 [11] = assay: Anticancer activity against human SW620 cells assessed cell growth at 10 uM after 48 hrs by sulforhodamine B assay relative to control
SR [12] = assay: Anticancer activity against human SR cells after 48 hrs by sulforhodamine B assay; details: Homo sapiens, SR, 48 h; for CC50: read-out: LC50 (the source's name)
K562 = assay: Anticancer activity against human K562 cells assessed cell growth at 10 uM after 48 hrs by sulforhodamine B assay relative to control

Compound `CCCCCCCCCCCCCCCCCC[n+]1ccn(C)c1.O=S(=O)([N-]S(=O)(=O)C(F)(F)F)C(F)(F)F` has an Activity (CCRF-CEM) of 67.84%, a GI50 (M14) of 0.537 µM and an LC50 (50% lethal concentration) (M14) of 6.84 µM. The GI50 (SW-620 [1]) was 0.52 µM, the LC50 (SW-620 [1]) was 6.48 µM and the GI50 (UACC-257) was 1.53 µM. It also gave an LC50 (UACC-257) greater than 100 µM, an Activity (Malme-3M) of -49.87% and an Activity (DU-145 [2]) of -8.63%. For the same compound, the GI50 (PC-3) was 0.311 µM, the CC50 (PC-3) was 5.26 µM and the Activity (MOLT-4) was 9.25%. It also gave a GI50 (HCC 2998) of 0.494 µM, a CC50 (HCC 2998) of 9.07 µM and a GI50 (UO-31) of 1.48 µM. The LC50 (UO-31) was greater than 100 µM, the GI50 (SF-295) was 0.484 µM and the CC50 (SF-295) was 6.61 µM. For the same compound, the Activity (ACHN) was -43.53%, the GI50 (TK-10) was 0.407 µM and the LC50 (TK-10) was 4.43 µM. For the same compound, the GI50 (MDA-MB-468) was 0.196 µM, the LC50 (MDA-MB-468) was greater than 100 µM and the Activity (RXF 393 [3]) was -62.07%. For the same compound, the GI50 (RXF 393 [4]) was 1.03 µM, the LC50 (RXF 393 [4]) was 6.55 µM and the GI50 (NCI-H460) was 0.663 µM. It also gave an LC50 (NCI-H460) of 5.24 µM, a GI50 (NCI-H226 [5]) of 1.26 µM and an LC50 (NCI-H226 [5]) of 8 µM. For the same compound, the GI50 (MCF7 [6]) was 1 µM, the LC50 (50% cell kill) (MCF7 [6]) was 5.52 µM and the GI50 (OVCAR-3) was 0.442 µM. For the same compound, the LC50 (50% lethal concentration) (OVCAR-3) was 4.71 µM, the GI50 (HOP-62) was 1.11 µM and the CC50 (HOP-62) was 9.79 µM. The GI50 (SNB-75) was 0.53 µM, the CC50 (SNB-75) was 5.71 µM and the GI50 (A498) was 1.07 µM. The CC50 (A498) was 6.22 µM, the GI50 (DU-145 [7]) was 0.792 µM and the CC50 (DU-145 [7]) was 4.69 µM. The Activity (SF-268) was -45.26%, the GI50 (HOP-92) was 0.35 µM and the CC50 (HOP-92) was greater than 100 µM. For the same compound, the GI50 (COLO 205) was 0.35 µM, the CC50 (COLO 205) was 4.02 µM and the GI50 (SN12C) was 1.25 µM. It also gave an LC50 (SN12C) of 5.72 µM, an Activity (NCI-H226 [8]) of -61.74% and an Activity (MCF7 [9]) of 6.12%. The Activity (HL-60(TB)) was 2.22%, the Activity (SR [10]) was 19% and the GI50 (HCT-116) was 0.651 µM. The CC50 (HCT-116) was greater than 100 µM, the GI50 (NCI-H23) was 0.407 µM and the CC50 (NCI-H23) was 7.7 µM. For the same compound, the GI50 (SK-OV-3) was 1.16 µM, the CC50 (SK-OV-3) was 5.82 µM and the GI50 (OVCAR-8) was 0.913 µM. For the same compound, the LC50 (OVCAR-8) was greater than 100 µM, the GI50 (KM12) was 0.454 µM and the CC50 (KM12) was 5.46 µM. It also gave an Activity (MDA-MB-435) of -70.83%, a GI50 (U-251) of 0.397 µM and a CC50 (U-251) of 3.97 µM. It also gave an Activity (SW-620 [11]) of -38.1%, a GI50 (SR [12]) of 1.24 µM and a CC50 (SR [12]) greater than 100 µM. The Activity (K562) was 17.9%.
`CCCCCCCCCCCCCCCC[n+]1ccn(C)c1.[Cl-]` showed an Activity (CCRF-CEM) of 33.57%, a GI50 (M14) of 0.343 µM and a GI50 (SW-620 [1]) of 0.461 µM. The GI50 (UACC-257) was 1.12 µM, the Activity (Malme-3M) was -77.38% and the Activity (DU-145 [2]) was -69.69%. It also gave a GI50 (PC-3) of 0.268 µM, a CC50 (PC-3) of 3.86 µM and an Activity (MOLT-4) of 17.19%. For the same compound, the GI50 (HCC 2998) was 0.192 µM, the CC50 (HCC 2998) was 7.29 µM and the GI50 (UO-31) was 1.1 µM. It also gave a GI50 (SF-295) of 0.383 µM, a CC50 (SF-295) of 5.02 µM and an Activity (ACHN) of -0.6%. The GI50 (TK-10) was 0.295 µM, the GI50 (MDA-MB-468) was 0.092 µM and the Activity (RXF 393 [3]) was -66.19%. For the same compound, the GI50 (RXF 393 [4]) was 0.379 µM, the GI50 (NCI-H460) was 0.498 µM and the GI50 (NCI-H226 [5]) was 0.861 µM. It also gave a GI50 (MCF7 [6]) of 0.431 µM, a GI50 (OVCAR-3) of 0.414 µM and a GI50 (HOP-62) of 1.17 µM. For the same compound, the CC50 (HOP-62) was 6.89 µM, the GI50 (SNB-75) was 0.555 µM and the CC50 (SNB-75) was 5.65 µM. The GI50 (A498) was 1.11 µM, the CC50 (A498) was 7.39 µM and the GI50 (DU-145 [7]) was 0.719 µM. The CC50 (DU-145 [7]) was 4.48 µM, the Activity (SF-268) was -22.98% and the GI50 (HOP-92) was 1.02 µM. For the same compound, the CC50 (HOP-92) was 7.3 µM, the GI50 (COLO 205) was 0.343 µM and the CC50 (COLO 205) was greater than 100 µM. It also gave a GI50 (SN12C) of 1 µM, an Activity (NCI-H226 [8]) of -60.54% and an Activity (MCF7 [9]) of -79.92%. The Activity (HL-60(TB)) was 45.73%, the Activity (SR [10]) was 15.17% and the GI50 (HCT-116) was 0.349 µM. The CC50 (HCT-116) was 6.21 µM, the GI50 (NCI-H23) was 0.504 µM and the CC50 (NCI-H23) was greater than 100 µM. For the same compound, the GI50 (SK-OV-3) was 1.27 µM, the CC50 (SK-OV-3) was greater than 100 µM and the GI50 (OVCAR-8) was 0.865 µM. For the same compound, the GI50 (KM12) was 0.357 µM, the CC50 (KM12) was 3.57 µM and the Activity (MDA-MB-435) was -55.77%. For the same compound, the GI50 (U-251) was 0.334 µM, the CC50 (U-251) was 3.87 µM and the Activity (SW-620 [11]) was -66.67%. For the same compound, the GI50 (SR [12]) was 0.1 µM, the CC50 (SR [12]) was 4.38 µM and the Activity (K562) was 72.56%.

Source: ChEMBL document CHEMBL1153245, “A profile of the in vitro anti-tumor activity of imidazolium-based ionic liquids” (2010)
